From patent US10175256B2, “Compositions and methods utilizing lysophosphatidylcholine scaffolds” (National University Of Singapore, priority 2013, dated 2019) come the findings set out here.

Series [1] in a line: Blood LPC [14C]-oleate analysis. The class given is in vivo, mice. Particulars: intravenous, 2 hrs post-injection. How it is done:
Mfsd2a KO and WT mice were injected intravenously with 100 μM radioactive labeled LPC [^14C]-oleate. 10 μl of blood samples were collected after 2 min (initial dose) and after 2 hr from tail vein, and radioactivity was quantified by scintillation counting. The amount of plasma LPC [^14C]-oleate in the KO mice was expressed as ratio to the WT at each time point.

The next series deals with T1, Mfsd2a (Mus musculus, UniProt Q9DA75).
T1 sequence (Q9DA75 1-534): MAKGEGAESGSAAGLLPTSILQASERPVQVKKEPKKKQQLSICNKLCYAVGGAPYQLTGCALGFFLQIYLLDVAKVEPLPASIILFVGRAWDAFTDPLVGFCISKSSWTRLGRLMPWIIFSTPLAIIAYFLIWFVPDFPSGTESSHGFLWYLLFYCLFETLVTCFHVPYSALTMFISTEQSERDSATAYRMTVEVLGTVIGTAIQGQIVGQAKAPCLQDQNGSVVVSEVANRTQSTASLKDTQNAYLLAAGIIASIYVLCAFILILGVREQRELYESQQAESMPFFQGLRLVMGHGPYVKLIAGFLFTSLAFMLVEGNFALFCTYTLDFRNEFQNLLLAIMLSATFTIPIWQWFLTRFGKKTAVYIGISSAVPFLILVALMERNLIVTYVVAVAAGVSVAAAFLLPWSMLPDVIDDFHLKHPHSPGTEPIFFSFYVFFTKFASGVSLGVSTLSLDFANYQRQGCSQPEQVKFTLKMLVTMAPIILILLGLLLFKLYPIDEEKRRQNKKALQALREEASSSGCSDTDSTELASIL
Put plainly: In vivo transport of radiolabeled, fluorescent LPCs and unesterified DHA in Mfsd2a KO and wild-type mice. Also noted: from tissue; host or cells: living mice; brain (blood-brain barrier endothelium), liver, heart; fetal brain. Particulars: i.v. injection, 2 hrs post-injection, radiolabel. As to the method:
Male and female mice of age of 6-8 weeks were IV injected with 75 μl of 20 mM radiolabeled LPC-[…], 100 μl of 10 mM LPC-[^14C]DHA/BSA complex or 82 μl of 12.2 mM [^14C]DHA/BSA complex in a total volume of 150 μl of phosphate-buffered saline. At 2 hours post injection, mice were anesthetized and perfused for 5 mins with PBS containing 0.5% BSA in order to remove blood and lipid tracer bound to the brain vasculature. Tissues were harvested for lipid extraction. For lipid extraction, tissues were weighed and similar amounts of tissues were homogenized in chloroform/methanol. Lipids from the organic phase were mixed with scintillant and scintillation counted. Similar experiments were also performed with an injection of 300 μg NBD-LPC/BSA or 300 μg TopFluor-LPC/BSA complex per mouse. In this experiment, mice were perfused for 5 mins with PBS followed 15 mins perfusion with 4% paraformaldehyde (PFA) for tissue fixation. Brain sections of WT and KO with a thickness of 40 μm were prepared and scanned using green fluorescence mode in Typhoon FLA 9000 scanner (Agilent). NBD-LPC accumulation was expressed as fluorescence of each section per its area. Dietary DHA transport from mother to fetus was also measured using [^14C]DHA/BSA complex. Pregnant females at e18.5 was gavaged with bolus of [^14C]DHA/BSA complex (200 μl of 10 mM [^14C]DHA/BSA/mouse). Brain of fetuses were collected 20 hours post-gavage and weighed. Lipid extraction and radioactivity were performed as described above.

For series [2], the target named is T2, mouse Mfsd2a (Mus musculus, UniProt Q9DA75).
T2 construct: expressed in transfected cells; host or cells: HEK293
T2 sequence (Q9DA75 1-534): T1 sequence (Q9DA75 1-534)
Put plainly: TLC analysis of phospholipids (bio-incorporation of LPC into PC). Particulars: TLC. The format is cell-based. How it is done:
HEK293 cells overexpressing with pcDNA3.1Mfsd2a (WT), pcDNA3.1Mfsd2aD92A (D92A), pcDNA3.1Mfsd2aD96A, or pcDNA3.1 (mock) plasmids or human Mfsd2a (in Sport6 plasmid) were washed once with serum-free DMEM medium before incubation with 50 μM radiolabeled LPC [^14C]oleate, LPC [^14C]DHA or with 50 μM TopFluor-LPC and NBD-LPC. Lipids were extracted twice with HIP buffer for 30 mins. Lipids were dried with nitrogen stream and reconstituted in chloroform and spotted on TLC plates (Milipore). Solvent for phospholipid separation was chloroform/methanol/ammonia solution (25%) (50:25:6, per volume). TLC plates of radiolabeled phospholipids were dried for 30 mins and exposed overnight to Phosphorscreens and scanned with Typhoon FLA 9000 scanner (Agilent). TLC plates of fluorescent phospholipids were scanned with Typhoon FLA 9000 scanner and quantified using Imagequant software.

Series [3] has as its target T2, mouse Mfsd2a. Put plainly: In vitro transport (uptake) of radiolabeled and fluorescent LPCs in HEK293 cells overexpressing Mfsd2a. The format is cell-based. How it is done: Uptake assays of radiolabeled LPCs or fluorescent LPCs were tested using HEK293 cells overexpressing Mfsd2a and mutants constructs. Briefly, HEK293 cells at 90-95% confluency were transfected using LIPOFECTAMINE 2000 (Invitrogen) with pcDNA3.1Mfsd2a (WT), pcDNA3.1Mfsd2aD92A (D92A), pcDNA3.1Mfsd2aD96A (D96A), or pcDNA3.1 (mock) plasmids. Uptake assays were performed after 24 hours of transfections. Prior to ligand incubation, HEK293 transfected cells were washed with serum-free DMEM before assays. For concentration and time dependent assays, radiolabeled LPCs were diluted in pre-warmed DMEM media. For sodium dependent assay, radiolabeled LPCs were diluted in transport buffer (5 mM KCl, 10 mM Hepes, pH 7.4) with 150 mM NaCl or 150 mM choline chloride. For sodium concentration dependent assays, any reductions in the concentration of NaCl were replaced by choline chloride in order to maintain a constant cation molarity of 150 mM. All assays were performed in 12 well-plates with triplicates and at 37° C.

In the case of `CCCCCCCCC=CCCCCCCCC(=O)OC[C@@H](O)COP(=O)([O-])OCC[N+](C)(C)C` [LPC-[^14C]oleate, 1-oleoyl 2-lysophosphocholine], the “plasma level of injected tracer in KO mice relative to WT” value in series [1] was “increased levels”. The “brain uptake in KO mice relative to wild-type” value on Mfsd2a was “markedly reduced”. Moreover, the “net uptake of LPC ligand (PC mass)” value at mouse Mfsd2a [2] (100 μM unlabeled LPC-oleate, 1 hour) is on record as “Increased net uptake”. For the same compound, the “conversion of transported LPCs into PCs” value at mouse Mfsd2a [2] (HEK293 cells expressing Mfsd2a, radiolabeled LPC) is listed as “rapid conversion of transported LPCs into PCs”. In addition, the “comparison of Mfsd2a-mediated uptake (capacity to transport)” value on mouse Mfsd2a [3] (HEK293 cells expressing Mfsd2a) is “highest capacity to transport LPC-DHA, followed by LPC-oleate, and LPC-palmitate”. The “uptake of radiolabeled LPC by cells expressing Mfsd2a relative to control cells” value on mouse Mfsd2a [3] (HEK293 cells, wild-type Mfsd2a vs mock, LPC/BSA, 30 mins) is on record as “concentration-dependent uptake”.
